Where two headings read alike, the source gives them in different places.
Experiments:
human recombinant BACE1 = human recombinant BACE1 (Homo sapiens (Human), UniProt P56817); assay: In vitro enzymatic BACE1 FRET assay; type: biochemical; conditions: read-out: IC50 IP (μM) BACE1 enzyme
In short: (§1)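 Read-out: dequenched fluorescence, excitation 488 nm, emission 590 nm, after proteolysis of a quenched peptide spanning the BACE cleavage site. Substrate at 50 nM, 1 h incubation, termination by Tris addition to neutral pH.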

Recombinant Cat D = Recombinant Cat D (Homo sapiens (Human), UniProt P07339); assay: In vitro enzymatic Cathepsin D (Cat D) FRET assay; type: biochemical; conditions: read-out: IC50 IP (μM) CatD
In short: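 Recombinant Cat D expressed in CHO cells, assayed in 0.05 M citrate pH 3.5 with 5 mM CHAPS and 10% DMSO final. Reaction started with 20 nM FRET peptide substrate, incubated one hour, then stopped by Tris buffer to neutral pH; fluorescence read at ex 500/em 580 nm.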

[1] = system: Aβ40 in conditioned medium of cells stably expressing Amyloid Precursor Protein (APP); assay: In vitro BACE-1 cell-based assay (Aβ40 sandwich ELISA); conditions: read-out: IC50 IP (μM) BACE1 cell
In short: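 Read-out: time-resolved fluorescence (Streptavidin-Europium) of Aβ40 captured by pAb40 and detected with biotinylated 6E10 from supernatants of APP-stable cells. Cells were exposed to compound for 24 h, 10-point dose response, top dose 100 μM or 10 μM, 0.1% DMSO. IC50 fitted to percent of control.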

human recombinant BACE2 = human recombinant BACE2 (Homo sapiens (Human), UniProt Q9Y5Z0); assay: In vitro enzymatic BACE2 FRET assay; type: biochemical; conditions: read-out: IC50 IP (μM) BACE2 enzyme
In short: as §1

human recombinant BACE2, sequence (Q9Y5Z0 63-518): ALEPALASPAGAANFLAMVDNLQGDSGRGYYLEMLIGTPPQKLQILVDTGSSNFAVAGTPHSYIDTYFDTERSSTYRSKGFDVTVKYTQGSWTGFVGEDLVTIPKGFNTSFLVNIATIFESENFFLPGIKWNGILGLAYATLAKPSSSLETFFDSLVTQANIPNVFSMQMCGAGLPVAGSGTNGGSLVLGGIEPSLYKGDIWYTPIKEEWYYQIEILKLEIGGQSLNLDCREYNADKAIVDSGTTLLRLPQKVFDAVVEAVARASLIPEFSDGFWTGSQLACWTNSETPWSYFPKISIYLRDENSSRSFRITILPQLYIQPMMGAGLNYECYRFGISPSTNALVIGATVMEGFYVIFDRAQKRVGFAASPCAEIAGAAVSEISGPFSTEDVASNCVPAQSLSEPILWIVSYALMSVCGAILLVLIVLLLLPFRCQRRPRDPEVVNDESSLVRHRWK
Recombinant Cat D, sequence (P07339 65-412): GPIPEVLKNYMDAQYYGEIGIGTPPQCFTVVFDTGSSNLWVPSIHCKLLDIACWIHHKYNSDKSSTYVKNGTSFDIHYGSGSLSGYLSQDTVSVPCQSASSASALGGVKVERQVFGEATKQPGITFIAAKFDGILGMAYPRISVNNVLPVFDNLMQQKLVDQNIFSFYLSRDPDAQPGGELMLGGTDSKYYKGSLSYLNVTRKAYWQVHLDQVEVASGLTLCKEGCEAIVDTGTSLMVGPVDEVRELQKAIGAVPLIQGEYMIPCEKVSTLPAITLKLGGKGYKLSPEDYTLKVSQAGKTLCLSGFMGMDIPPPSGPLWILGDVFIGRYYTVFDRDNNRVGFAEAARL
human recombinant BACE1, sequence (P56817 46-501): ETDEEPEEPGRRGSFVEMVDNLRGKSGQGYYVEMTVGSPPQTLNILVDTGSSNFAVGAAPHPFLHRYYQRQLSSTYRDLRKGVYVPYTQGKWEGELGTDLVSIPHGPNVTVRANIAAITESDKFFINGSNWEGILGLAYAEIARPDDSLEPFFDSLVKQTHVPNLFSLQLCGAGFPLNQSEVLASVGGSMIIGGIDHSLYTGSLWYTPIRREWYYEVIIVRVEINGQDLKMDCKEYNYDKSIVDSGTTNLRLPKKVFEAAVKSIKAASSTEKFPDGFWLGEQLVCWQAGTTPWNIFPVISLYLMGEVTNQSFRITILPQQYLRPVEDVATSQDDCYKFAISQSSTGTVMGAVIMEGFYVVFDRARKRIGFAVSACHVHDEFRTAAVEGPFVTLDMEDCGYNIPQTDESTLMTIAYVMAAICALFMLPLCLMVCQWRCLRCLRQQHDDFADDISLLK

SMILES	IC50 (human recombinant BACE1) [nM]	IC50 (Recombinant Cat D) [µM]	IC50 [1] [µM]	IC50 (human recombinant BACE2) [µM]	IC50 (human recombinant BACE1; BACE1 FRET enzyme assay) [nM]	IC50 (Recombinant Cat D; Cathepsin D FRET enzyme assay) [µM]	IC50 ([1]; BACE1 cell-based assay) [µM]	IC50 (human recombinant BACE2; BACE2 FRET enzyme assay) [µM]
[2H]C([2H])([2H])OC[C@]12C[C@H]1[C@@](C)(c1cc(Nc3ncnc4cc(Cl)cnc34)cnc1F)N=C(N)S2 [Example 852, N-(5-((1S,5S,6S)-3-amino-5-methyl-1-(((~2~H_3_)methyloxy)methyl)-2-thia-4-azabicyclo[4.1.0]hept-3-en-5yl)-6-fluoro-3-pyridinyl)-7-chloropyrido[3,2-d]pyrimidin-4-amine]	12.7	1680	0.0101	0.00758	–	–	–	–
COC[C@]12C[C@H]1[C@@](C)(c1cc(NC(=O)c3cnc(OCC4CC4)cn3)ccc1F)N=C(N)S2 [Example 1053, N-(3-((1S,5S,6S)-3-amino-1-(methoxymethyl)-5-methyl-2-thia-4-azabicyclo[4.1.0]hept-3-en-5-yl)-4-fluorophenyl)-5-(cyclopropylmethoxy)-2-pyrazinecarboxamide]	5.9	1420	0.0029	0.108	–	–	–	–
C[C@]1(c2cc(NC(=O)c3cnc(OCC(F)(F)F)cn3)ccc2F)N=C(N)S[C@@]2(C(=O)N3CC[C@H](F)C3)C[C@H]21 [Example 992, N-(3-((1S,5S,6S)-3-amino-1-((S)-3-fluoropyrrolidine-1-carbonyl)-5-methyl-2-thia-4-azabicyclo[4.1.0]hept-3-en-5-yl)-4-fluorophenyl)-5-(2,2,2-trifluoroethoxy)pyrazine-2-carboxamide]	0.776	954	0.000338	0.0125	–	–	–	–
COC[C@]12C[C@H]1[C@@](C)(c1cc(NC(=O)c3cnc(OCC(C)C)cn3)cc(F)c1F)N=C(N)S2 [Example 1028, N-(3-((1S,5S,6S)-3-amino-1-(methoxymethyl)-5-methyl-2-thia-4-azabicyclo[4.1.0]hept-3-en-5-yl)-4,5-difluorophenyl)-5-(2-methylpropoxy)-2-pyrazinecarboxamide]	1.95	135	0.0293	0.226	–	–	–	–
C#CCOc1cnc2c(Nc3cnc(F)c([C@@]4(C)N=C(N)S[C@H]5C[C@H]54)c3)nccc2n1 [Example 639, (1S,5S,6S)-5-(2-fluoro-5-((2-(prop-2-yn-1-yloxy)pyrido[3,4-b]pyrazin-5-yl)amino)pyridin-3-yl)-5-methyl-2-thia-4-azabicyclo[4.1.0]hept-3-en-3-amine]	1.57	381	0.00213	0.0401	–	–	–	–
C[C@]1(c2cc(NC(=O)c3cnc(OCC(F)(F)F)cn3)ccc2F)N=C(N)S[C@@]2(C(=O)N3CC[C@@H](F)C3)C[C@H]21 [Example 991, N-(3-((1S,5S,6S)-3-amino-1-((R)-3-fluoropyrrolidine-1-carbonyl)-5-methyl-2-thia-4-azabicyclo[4.1.0]hept-3-en-5-yl)-4-fluorophenyl)-5-(2,2,2-trifluoroethoxy)pyrazine-2-carboxamide]	0.297	664	0.000265	0.0097	–	–	–	–
C[C@]1(c2cc(NC(=O)c3cnc(OCC(F)(F)F)cn3)ccc2F)N=C(N)S[C@@]2(C(=O)NCC(F)F)C[C@H]21 [Example 999, (1S,5S,6S)-3-amino-N-(2,2-difluoroethyl)-5-(2-fluoro-5-(5-(2,2,2-trifluoroethoxy)pyrazine-2-carboxamido)phenyl)-5-methyl-2-thia-4-azabicyclo[4.1.0]hept-3-ene-1-carboxamide]	0.09	180	0.00613	0.0755	–	–	–	–
CC(C)[C@@H](C)NC(=O)[C@]12C[C@H]1[C@@](C)(c1cc(NC(=O)c3cnc(OCC(F)(F)F)cn3)ccc1F)N=C(N)S2 [Example 997, (1S,5S,6S)-3-amino-5-(2-fluoro-5-(5-(2,2,2-trifluoroethoxy)pyrazine-2-carboxamido)phenyl)-5-methyl-N—((R)-3-methylbutan-2-yl)-2-thia-4-azabicyclo[4.1.0]hept-3-ene-1-carboxamide]	0.893	9.48	0.00672	0.0509	–	–	–	–
C#CCOc1cnc(C(=O)Nc2ccc(F)c([C@@]3(C)N=C(N)S[C@@]4([C@@H](O)C(F)(F)F)C[C@H]43)c2)cn1 [Example 674, N-(3-((1S,5S,6S)-3-amino-5-methyl-1-((1S)-2,2,2-trifluoro-1-hydroxyethyl)-2-thia-4-azabicyclo[4.1.0]hept-3-en-5-yl)-4-fluorophenyl)-5-(2-propyn-1-yloxy)-2-pyrazinecarboxamide]	0.368	149	0.000776	0.0133	–	–	–	–
[2H]C([2H])([2H])OC[C@]12C[C@H]1[C@@](C)(c1cc(NC(=O)c3cnc(OCC#C)cn3)cnc1F)N=C(N)S2 [Example 851, N-(5-((1S,5S,6S)-3-amino-5-methyl-1-(((~2~H_3_)methyloxy)methyl)-2-thia-4-azabicyclo[4.1.0]hept-3-en-5-yl)-6-fluoro-3-pyridinyl)-5-(2-propyn-1-yloxy)-2-pyrazinecarboxamide]	0.574	468	0.000624	0.0184	–	–	–	–

Results, then the compound that gave them:

IC50 (human recombinant BACE1) [nM]	IC50 (Recombinant Cat D) [µM]	IC50 [1] [µM]	IC50 (human recombinant BACE2) [µM]	IC50 (human recombinant BACE1; BACE1 FRET enzyme assay) [nM]	IC50 (Recombinant Cat D; Cathepsin D FRET enzyme assay) [µM]	IC50 ([1]; BACE1 cell-based assay) [µM]	IC50 (human recombinant BACE2; BACE2 FRET enzyme assay) [µM]	SMILES
0.706	1070	0.0011	< 0.00203	–	–	–	–	CN(C)C(=O)CC[C@]12C[C@H]1[C@@](CF)(c1cc(NC(=O)c3ccc(Cl)cn3)ccc1F)N=C(N)S2 [Example 765, N-(3-((1S,5S,6S)-3-amino-1-(3-(dimethylamino)-3-oxopropyl)-5-(fluoromethyl)-2-thia-4-azabicyclo[4.1.0]hept-3-en-5-yl)-4-fluorophenyl)-5-chloropicolinamide]
11.8	684	0.0209	< 0.00203	–	–	–	–	NC1=N[C@](CF)(c2cc(NC(=O)c3ccc(Cl)cn3)ccc2F)[C@@H]2C[C@]2(Cn2ccnn2)S1 [Example 722, N-(3-((1S,5S,6S)-3-amino-5-(fluoromethyl)-1-(1H-1,2,3-triazol-1-ylmethyl)-2-thia-4-azabicyclo[4.1.0]hept-3-en-5-yl)-4-fluorophenyl)-5-chloro-2-pyridinecarboxamide]
4.52	1110	0.0193	0.27	–	–	–	–	Cc1noc(COc2cnc3c(Nc4ccc(F)c([C@@]5(CF)N=C(N)S[C@@]6(CF)C[C@H]65)c4)nccc3n2)n1 [Example 880, N-(3-((1S,5S,6S)-3-amino-1,5-bis(fluoromethyl)-2-thia-4-azabicyclo[4.1.0]hept-3-en-5-yl)-4-fluorophenyl)-2-((3-methyl-1,2,4-oxadiazol-5-yl)methoxy)pyrido[3,4-b]pyrazin-5-amine]
3.43	1530	0.0017	0.0463	–	–	–	–	COC[C@]12C[C@H]1[C@@](C)(c1cc(Nc3nccc4nc(OCc5ncco5)cnc34)cnc1F)N=C(N)S2 [Example 849, N-(5-((1S,5S,6S)-3-amino-1-(methoxymethyl)-5-methyl-2-thia-4-azabicyclo[4.1.0]hept-3-en-5-yl)-6-fluoro-3-pyridinyl)-2-(1,3-oxazol-2-ylmethoxy)pyrido[3,4-b]pyrazin-5-amine]
0.863	121	0.000338	0.00253	–	–	–	–	CN(C)C(=O)[C@]12C[C@H]1[C@@](C)(c1cc(Nc3ncnc4cc(OCc5ncco5)cnc34)cc(F)c1F)N=C(N)S2 [Example 923, (1S,5S,6S)-3-amino-5-(2,3-difluoro-5-((7-(1,3-oxazol-2-ylmethoxy)pyrido[3,2-d]pyrimidin-4-yl)amino)phenyl)-N,N,5-trimethyl-2-thia-4-azabicyclo[4.1.0]hept-3-ene-1-carboxamide]
–	–	–	–	12	> 400	0.0136	0.0295	COc1cnc(C(=O)Nc2ccc(F)c([C@@]3(CF)N=C(N)S[C@@]4(CO)C[C@H]43)c2)c(C)n1 [Example 75, N-(3-((1S,5S,6S)-3-amino-5-(fluoromethyl)-1-(hydroxymethyl)-2-thia-4-azabicyclo[4.1.0]hept-3-en-5-yl)-4-fluorophenyl)-5-methoxy-3-methyl-2-pyrazinecarboxamide]
–	–	–	–	5.63	29.5	0.0225	0.0235	N#Cc1cnc2c(Nc3cc(F)c(F)c([C@@]4(CF)N=C(N)S[C@]5(CO)C[C@@H]54)c3)nccc2c1 [Example 57, 8-((3-((1R,5S,6R)-3-amino-5-(fluoromethyl)-1-(hydroxymethyl)-2-thia-4-azabicyclo[4.1.0]hept-3-en-5-yl)-4,5-difluorophenyl)amino)-1,7-naphthyridine-3-carbonitrile]
60.9	621	0.172	0.652	–	–	–	–	COC[C@]12C[C@H]1[C@@](C)(c1cc(NC(=O)c3ncc(O[C@@H](C)c4ncco4)nc3C)cc(F)c1F)N=C(N)S2 [Example 864, N-(3-((1S,5S,6S)-3-amino-1-(methoxymethyl)-5-methyl-2-thia-4-azabicyclo[4.1.0]hept-3-en-5-yl)-4,5-difluorophenyl)-3-methyl-5-((1S)-1-(1,3-oxazol-2-yl)ethoxy)-2-pyrazinecarboxamide]
